Measured values reported in patent US9382204B2, “Inhibitors targeting the DNA-binding domain of human STAT3 for treatment of metastatic cancers” (Indiana University Research and Technology Corporation, priority 2013, dated 2016).

System: STAT3
Assay: STAT3-dependent luciferase reporter assay in MDA-MB-231-STAT3 stable cells
Type: cell-based, human
Conditions: 20 μM; for Rel. luciferase activity (%) 1: experiment 1, relative to DMSO; for Rel. luciferase activity (%) 2: experiment 2, relative to DMSO; for Rel. luciferase activity (%) 3: experiment 3, relative to DMSO; for Rel. luciferase activity (%) Mean: mean of experiments, relative to DMSO; for inhibition of luciferase expression compared to DMSO vehicle control: significant = p value less than 0.05
Procedure: FIG. 12. Identification of active inS3-54 analogues. (A) Effects of inS3-54 analogues on STAT3-dependent luciferase expression. MDA-MB-231 cells with stable STAT3-dependent luciferase expression were treated with DMSO control, 20 μM inSTAT3-54 or its analogues (A1-A79), followed by measurement of luciferase activity. (*p<0.05; **p<0.01; ***p<0.001).
MDA-MB-231-STAT3 stable cell line with high level of STAT3-dependent luciferase expression was exposed to candidate compounds at 20 μM in DMSO for 48 hours based on previous studies, and luciferase activity was measured using a luciferase assay kit (Promega, USA), following manufacturer's instructions. The final DMSO concentration in this and following assays was 0.1% (vol/vol).

Structure (SMILES) | Rel. luciferase activity (%) 1 [%] | Rel. luciferase activity (%) 2 [%] | Rel. luciferase activity (%) 3 [%] | Rel. luciferase activity (%) Mean [%] | inhibition of luciferase expression compared to DMSO vehicle control
COC(=O)c1cccc(N2C(=O)C(=Cc3ccc([N+](=O)[O-])cc3)C=C2c2ccccc2)c1 [Compound A34] | 61.1 | 103.6 | 80.8 | 81.9 | –
O=C1C(=Cc2ccc([N+](=O)[O-])cc2)C=C(c2ccccc2)N1c1ccc(-c2ccccc2)cc1 [Compound A35] | 51.3 | 109.5 | 112.6 | 91.1 | –
O=C1C(=Cc2ccc([N+](=O)[O-])cc2)C=C(c2ccccc2)N1c1ccc(Nc2ccccc2)cc1 [Compound A49] | 93.7 | 124.2 | 90.2 | 102.7 | –
Cc1ccc(N2C(=O)C(=Cc3ccc(-c4ccc([N+](=O)[O-])cc4)o3)C=C2c2ccccc2)cc1C [Compound A5] | 113.5 | 109.3 | 92.2 | 105.0 | –
O=C1C(=Cc2ccc([N+](=O)[O-])cc2)C=C(c2ccccc2)N1c1ccccc1 [Compound A68] | 71.2 | 84.5 | 68.7 | 74.8 | significantly inhibited
O=C1C(=Cc2ccc([N+](=O)[O-])cc2)C=C(c2ccccc2)N1c1ccc(Cl)cc1 [Compound A31] | 122.8 | 124.5 | 49.9 | 99.1 | –
O=C1C(=Cc2ccc([N+](=O)[O-])cc2)C=C(c2ccccc2)N1c1ccccc1O [Compound A42] | 100.8 | 145.3 | 100.8 | 115.6 | –
O=C1C(=Cc2ccc([N+](=O)[O-])cc2)C=C(c2ccccc2)N1c1ccc2ccccc2c1 [Compound A46] | 156.2 | 147.8 | 64.9 | 122.9 | –
O=C1C(=Cc2ccc([N+](=O)[O-])cc2)C=C(c2ccccc2)N1c1ccc(Cl)c(Cl)c1 [Compound A39] | 119.6 | 129.6 | 65.9 | 105.1 | –
O=C1C(=Cc2ccc([N+](=O)[O-])cc2)C=C(c2ccccc2)N1Cc1ccccc1 [Compound A36] | 46.4 | 87.4 | 66.3 | 66.7 | significantly inhibited
O=C1C(=Cc2ccc([N+](=O)[O-])cc2)C=C(c2ccccc2)N1c1cccc(Cl)c1 [Compound A38] | 66.5 | 119.9 | 88.8 | 91.8 | –
COc1ccc(N2C(=O)C(=Cc3ccc(Cl)cc3)C=C2c2ccccc2)cc1 [Compound A17] | 103.2 | 120.5 | 104.2 | 109.3 | –
COc1cccc(N2C(=O)C(=Cc3ccc(-c4ccc([N+](=O)[O-])cc4)o3)C=C2c2ccccc2)c1 [Compound A12] | 34.2 | 105.8 | 55.4 | 65.1 | –
Cc1ccc(N2C(=O)C(=Cc3ccc(-c4cc(Cl)ccc4Cl)o3)C=C2c2ccccc2)cc1[N+](=O)[O-] [Compound A3] | 116.7 | 104.0 | 101.3 | 107.3 | –
COc1ccc(C=C2C=C(c3ccccc3)N(c3ccc(NC(C)=O)cc3)C2=O)cc1 [Compound A60] | 70.7 | 107.0 | 58.9 | 78.9 | –
Cc1ccc(N2C(=O)C(=Cc3ccc(-c4ccc([N+](=O)[O-])cc4)o3)C=C2c2ccccc2)cc1 [Compound A4] | 117.8 | 108.4 | 103.4 | 109.9 | –
O=C1C(=Cc2ccc([N+](=O)[O-])cc2)C=C(c2ccccc2)N1c1ccc(F)cc1 [Compound A40] | 126.5 | 101.5 | 43.0 | 90.3 | –

Structure (SMILES) | Rel. luciferase activity (%) 1 [%] | Rel. luciferase activity (%) 2 [%] | Rel. luciferase activity (%) 3 [%] | Rel. luciferase activity (%) Mean [%] | inhibition of luciferase expression compared to DMSO vehicle control
CC(=O)c1cccc(N2C(=O)C(=Cc3ccc(-c4ccc([N+](=O)[O-])cc4)o3)C=C2c2ccccc2)c1 [Compound A8] | 71.9 | 102.6 | 57.5 | 77.3 | –
CC(=O)Nc1ccc(N2C(=O)C(=Cc3ccc([N+](=O)[O-])cc3)C=C2c2ccccc2)cc1 [Compound A47] | 106.8 | 108.8 | 43.3 | 86.3 | –
O=C1C(=Cc2ccc([N+](=O)[O-])cc2)C=C(c2ccccc2)N1c1ccc(Cl)c(Cl)c1 [Compound A48] | 87.5 | 108.6 | 42.5 | 79.5 | –
COc1ccc(N2C(=O)C(=Cc3ccc([N+](=O)[O-])cc3)C=C2c2ccccc2)cc1 [Compound A33] | 33.8 | 92.3 | 99.1 | 75.1 | –
CC(=O)c1cccc(N2C(=O)C(=Cc3ccc(Cl)cc3)C=C2c2ccccc2)c1 [Compound A65] | 86.6 | 103.9 | 91.2 | 93.9 | –
COc1ccc(C=C2C=C(c3ccccc3)N(c3ccc(Cl)c(Cl)c3)C2=O)cc1 [Compound A52] | 39.5 | 141.9 | 77.7 | 86.4 | –
COC(=O)c1cc(N2C(=O)C(=Cc3ccc(Cl)cc3)C=C2c2ccccc2)ccc1Cl [Compound A66] | 90.3 | 110.5 | 73.6 | 91.5 | –
COC(=O)c1cccc(N2C(=O)C(=Cc3ccc(OC)cc3)C=C2c2ccccc2)c1 [Compound A50] | 168.6 | 187.0 | 153.6 | 169.7 | –
COc1ccc(C=C2C=C(c3ccccc3)N(c3cccc4ccccc34)C2=O)cc1 [Compound A51] | 42.2 | 71.0 | 56.6 | 56.6 | significantly inhibited
O=C1C(=Cc2ccc(Cl)cc2)C=C(c2ccccc2)N1c1ccccc1Cl [Compound A27] | 48.5 | 83.6 | 74.2 | 68.8 | significantly inhibited
Cc1ccc(N2C(=O)C(=Cc3ccc(Cl)cc3)C=C2c2ccccc2)cc1[N+](=O)[O-] [Compound A25] | 74.6 | 124.2 | 87.8 | 95.6 | –
COc1ccc(C=C2C=C(c3ccccc3)N(c3ccccc3Cl)C2=O)cc1 [Compound A57] | 59.5 | 97.9 | 51.5 | 69.6 | –
O=C1C(=Cc2ccc(Cl)cc2)C=C(c2ccccc2)N1c1ccccc1 [Compound A15] | 98.4 | 99.9 | 60.1 | 86.1 | –
Cc1ccc(N2C(=O)C(=Cc3ccc([N+](=O)[O-])cc3)C=C2c2ccccc2)cc1C [Compound A29] | 100.7 | 170.4 | 113.3 | 128.1 | –
COc1ccc(N2C(=O)C(=Cc3ccc(-c4ccc([N+](=O)[O-])cc4)o3)C=C2c2ccccc2)cc1 [Compound A7] | 99.6 | 109.4 | 72.3 | 93.8 | –
COc1ccc(C=C2C=C(c3ccccc3)N(c3ccc4ccccc4c3)C2=O)cc1 [Compound A56] | 150.7 | 143.4 | 76.2 | 123.4 | –
COC(=O)c1ccc(N2C(=O)C(=Cc3ccc(Cl)cc3)C=C2c2ccccc2)cc1 [Compound A23] | 99.2 | 103.2 | 69.4 | 90.6 | –
